{
  "source": "paper PMC2702710",
  "about": "(The Journal of organic chemistry, 2009)",
  "key": {"[1]": {"molecular_target": "T1, Icmt (Homo sapiens, UniProt O60725)", "T1 sequence (O60725 whole entry, the tested form may be a part)": "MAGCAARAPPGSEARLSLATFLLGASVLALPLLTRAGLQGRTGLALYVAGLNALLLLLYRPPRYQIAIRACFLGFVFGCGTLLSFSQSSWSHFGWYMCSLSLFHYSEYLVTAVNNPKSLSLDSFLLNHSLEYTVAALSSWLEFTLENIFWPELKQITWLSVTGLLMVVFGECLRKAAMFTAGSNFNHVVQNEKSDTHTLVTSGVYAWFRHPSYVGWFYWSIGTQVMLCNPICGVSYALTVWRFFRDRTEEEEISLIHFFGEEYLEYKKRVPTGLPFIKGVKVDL", "assay": "Vapor diffusion assay", "type": "biochemical", "details": "for IC50: read-out: Human Icmt IC50, 25 μM AFC, 20 μM 14C-SAM, 30 min at 30°C"}, "[2]": {"molecular_target": "T1, Icmt", "assay": "Icmt scintillation proximity assay", "type": "biochemical", "details": "initial SPA screen, 50 μM"}, "[3]": {"molecular_target": "T1, Icmt", "assay": "Preliminary screen for Icmt substrate activity", "type": "biochemical"}, "[4]": {"tested_on": "cancer cells", "details": "cited from earlier work"}},
  "data": [
    {"molecule": "CC(C)=CCC/C(C)=C/CC/C(C)=C/CSC[C@H](NC(=O)CC12CC3CC(CC(C3)C1)C2)C(=O)O", "note": "[4a, N-1-adamantylacetylcarbonyl-L-cysteine[S-(2E,6E)-3,7,11-trimethyldodeca-2,6,10-trienyl]-OH]", "values": [
      {"measurement": "IC50", "setting": "[1]; VDA", "value": 18.8, "unit": "µM"}
    ]},
    {"molecule": "CC(C)=CCC/C(C)=C/CC/C(C)=C/CSC[C@H](NC(=O)C12CC3CC(CC1C3)C2)C(=O)O", "note": "[4b, N-3-noradamantanecarbonyl-L-cysteine[S-(2E,6E)-3,7,11-trimethyldodeca-2,6,10-trienyl]-OH]", "values": [
      {"measurement": "IC50", "setting": "[1]; VDA", "value": 16.7, "unit": "µM"}
    ]},
    {"molecule": "CC(C)=CCC/C(C)=C/CC/C(C)=C/CSC[C@H](NC(=O)C[C@H]1C[C@H]2CCC1C2)C(=O)O", "note": "[4c, N-2-((2R,4S)-bicyclo[2.2.1]heptan-2-yl)acetyl-L-cysteine[S-(2E,6E)-3,7,11-trimethyldodeca-2,6,10-trienyl]-OH]", "values": [
      {"measurement": "activity in the SPA", "setting": "[2]", "value": "inactive"}
    ]},
    {"molecule": "CCCCCC12CCC(C(=O)N[C@@H](CSC/C=C(\\C)CC/C=C(\\C)CCC=C(C)C)C(=O)O)(CC1)CC2", "note": "[4d, N-4-pentylbicyclo[2.2.2]octane-1-carbonyl-L-cysteine[S-(2E,6E)-3,7,11-trimethyldodeca-2,6,10-trienyl]-OH]", "values": [
      {"measurement": "IC50", "setting": "[1]; VDA", "value": 16.7, "unit": "µM"}
    ]},
    {"molecule": "CC(C)=CCC/C(C)=C/CC/C(C)=C/CSC[C@H](NC(=O)[C@]12CCC(CC1=O)C2(C)C)C(=O)O", "note": "[4e, N-(1S)-7,7-dimethyl-2-oxobicyclo[2.2.1]heptane-1-carbonyl-L-cysteine[S-(2E,6E)-3,7,11-trimethyldodeca-2,6,10-trienyl]-OH]", "values": [
      {"measurement": "IC50", "setting": "[1]; VDA", "value": 15.6, "unit": "µM"}
    ]},
    {"molecule": "CC(C)=CCC/C(C)=C/CC/C(C)=C/CSC[C@H](NC(=O)c1ccccc1-c1ccccc1)C(=O)O", "note": "[4f, N-2-phenylbenzoyl-L-cysteine[S-(2E,6E)-3,7,11-trimethyldodeca-2,6,10-trienyl]-OH]", "values": [
      {"measurement": "IC50", "setting": "[1]; VDA", "value": 12.1, "unit": "µM"}
    ]},
    {"molecule": "CC(C)=CCC/C(C)=C/CC/C(C)=C/CSC[C@H](NC(=O)Cc1cccc2ccccc12)C(=O)O", "note": "[4g, N-1-napthylacetylcarbonyl-L-cysteine[S-(2E,6E)-3,7,11-trimethyldodeca-2,6,10-trienyl]-OH]", "values": [
      {"measurement": "activity in the SPA", "setting": "[2]", "value": "inactive"}
    ]},
    {"molecule": "CC(C)=CCC/C(C)=C/CC/C(C)=C/CSC[C@H](NC(=O)CO[C@@H]1C[C@H](C)CC[C@H]1C(C)C)C(=O)O", "note": "[4h, N-2-((1R,2S,5R)-2-isopropyl-5-methylcyclohexyloxy)acetyl-L-cysteine[S-(2E,6E)-3,7,11-trimethyldodeca-2,6,10-trienyl]-OH]", "values": [
      {"measurement": "IC50", "setting": "[1]; VDA", "value": 22.9, "unit": "µM"}
    ]},
    {"molecule": "CCCCCCCCC(=O)N[C@@H](CSC/C=C(\\C)CC/C=C(\\C)CCC=C(C)C)C(=O)O", "note": "[4i, N-octylcarbonyl-L-cysteine[S-(2E,6E)-3,7,11-trimethyldodeca-2,6,10-trienyl]-OH]", "values": [
      {"measurement": "activity in the SPA", "setting": "[2]", "value": "inactive"}
    ]},
    {"molecule": "CC(C)=CCC/C(C)=C/CC/C(C)=C/CSC[C@H](NC(=O)c1ccccc1Oc1ccccc1)C(=O)O", "note": "[5e, N-(2-oxyphenyl)benzoyl-L-cysteine[S-(2E,6E)-3,7,11-trimethyldodeca-2,6,10-trienyl]-OH]", "values": [
      {"measurement": "inhibition of Icmt (methylation of AFC)", "setting": "[1]; VDA, at a concentration of 10 μM", "value": "~80", "unit": "%"},
      {"measurement": "IC50", "setting": "[1]; VDA", "value": 4.3, "unit": "µM"}
    ]},
    {"molecule": "CC(C)=CCC/C(C)=C/CC/C(C)=C/CSC[C@H](NC(=O)CN1C(=O)OC[C@@H]1c1ccccc1)C(=O)O", "note": "[5f, N-2-((S)-4-phenyl-2-oxo-oxazolidin-3-yl)acetyl-L-cysteine[S-(2E,6E)-3,7,11-trimethyldodeca-2,6,10-trienyl]-OH]", "values": [
      {"measurement": "Icmt substrate activity", "setting": "[3]", "value": "more efficient Icmt substrates than the prototypical N-acetylfarnesylcysteine"}
    ]},
    {"molecule": "CC(C)=CCC/C(C)=C/CC/C(C)=C/CSC[C@H](NC(=O)CCS(=O)(=O)c1ccccc1)C(=O)O", "note": "[5l, N-3-(phenylsulfonyl)propanoyl-L-cysteine[S-(2E,6E)-3,7,11-trimethyldodeca-2,6,10-trienyl]-OH]", "values": [
      {"measurement": "Icmt substrate activity", "setting": "[3]", "value": "more efficient Icmt substrates than the prototypical N-acetylfarnesylcysteine"}
    ]},
    {"molecule": "CC(C)=CCC(=CCSC[C@H](NC(=O)c1ccccc1Oc1ccccc1)C(=O)O)CCc1ccc(-c2ccccc2)cc1", "note": "[compound 7, N-2-Phenoxybenzoyl-S-3-(3-methyl-but-2-enyl)-5-(4-biphenyl)pent-2-enyl-L-cysteine]", "values": [
      {"measurement": "Icmt substrate activity", "setting": "[3]", "value": "no substrate activity"}
    ]},
    {"molecule": "CCCCCCCCn1cc(CC(N)=O)c2cc(-c3cccc(C)c3)ccc21", "note": "[cysmethynil]", "values": [
      {"measurement": "activity against cancer cells", "setting": "[4]", "value": "exhibits activity against cancer cells"}
    ]},
    {"molecule": "N-2-(aminophenyl)benzoyl-L-cysteine[S-(2E,6E)-3,7,11-trimethyldodeca-2,6,10-trienyl]-OH [5h]", "values": [
      {"measurement": "Icmt inhibitory potency (in words)", "setting": "[1]", "value": "potent analog"}
    ]}
  ]
}
